Patent US4256836A, “Addition compound of dipeptide derivative and amino acid derivative” (Toyo Soda Manufacturing Co. Ltd., priority 1977, dated 1981)
Where a SMILES comes first, the peptide text is derived from it. The star is where a group is joined. Cbz = O=C(OCc1ccccc1)*

How the values were obtained:
[1] = solubility in water or acidic aqueous solution; type: physicochemical; details: at 25° C.
[2] = relative to sugar; cited from earlier work

Row | SMILES | solubility in water [1] [g/100 g water] | solubility in diluted hydrochloric acid ([1]; diluted hydrochloric acid (10^-2 M)) | sweetness [2]
1 | COC(=O)[C@H](Cc1ccccc1)NC(=O)[C@H](CC(=O)O)NC(=O)OCc1ccccc1 (Cbz-Asp-Phe-OMe) | 0.028 | 0.017 g/100 g diluted hydrochloric acid (10^-2 M) | 
2 | COC(=O)[C@H](Cc1ccccc1)NC(=O)[C@@H](N)CC(=O)O [α-L-Aspartyl-L-phenylalanine methyl ester] (H-Asp-Phe-OMe) |  |  | about 200 times of that of sugar
